# Where two headings read alike, the source gives them in different places.
# Columns and labels:
# Assay in all cases: Kinase profile (33P ATP filter binding)
# Format in all cases: biochemical
# Conditions in all cases: read-out: Remaining protein kinase activity
# CAMK1 = CAMK1 (Homo sapiens, UniProt Q14012)
# PINK = biological target: T1, PINK (Tribolium castaneum, UniProt D6WMX4)
# T1 sequence (D6WMX4 1-570): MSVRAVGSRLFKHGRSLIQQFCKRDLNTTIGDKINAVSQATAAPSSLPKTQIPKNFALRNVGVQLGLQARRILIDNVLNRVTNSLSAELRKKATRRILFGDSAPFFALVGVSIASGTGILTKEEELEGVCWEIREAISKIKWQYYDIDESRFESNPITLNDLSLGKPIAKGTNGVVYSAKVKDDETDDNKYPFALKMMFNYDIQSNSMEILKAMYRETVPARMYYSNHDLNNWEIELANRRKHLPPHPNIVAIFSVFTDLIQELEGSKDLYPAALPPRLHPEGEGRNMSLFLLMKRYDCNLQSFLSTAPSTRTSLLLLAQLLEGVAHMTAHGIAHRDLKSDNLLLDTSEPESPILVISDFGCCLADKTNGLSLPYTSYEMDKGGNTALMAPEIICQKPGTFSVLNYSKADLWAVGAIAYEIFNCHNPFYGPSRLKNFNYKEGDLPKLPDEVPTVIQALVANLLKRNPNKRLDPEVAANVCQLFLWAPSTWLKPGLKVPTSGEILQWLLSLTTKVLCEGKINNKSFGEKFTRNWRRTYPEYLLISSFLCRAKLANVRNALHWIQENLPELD
# ERK1 = ERK1 (Homo sapiens, UniProt P27361)
# MLK1 = MLK1 (Homo sapiens, UniProt P80192)
# TAO1 = biological target: T2, TAO1 (Homo sapiens, UniProt Q7L7X3)
# T2 sequence (Q7L7X3 1-1001): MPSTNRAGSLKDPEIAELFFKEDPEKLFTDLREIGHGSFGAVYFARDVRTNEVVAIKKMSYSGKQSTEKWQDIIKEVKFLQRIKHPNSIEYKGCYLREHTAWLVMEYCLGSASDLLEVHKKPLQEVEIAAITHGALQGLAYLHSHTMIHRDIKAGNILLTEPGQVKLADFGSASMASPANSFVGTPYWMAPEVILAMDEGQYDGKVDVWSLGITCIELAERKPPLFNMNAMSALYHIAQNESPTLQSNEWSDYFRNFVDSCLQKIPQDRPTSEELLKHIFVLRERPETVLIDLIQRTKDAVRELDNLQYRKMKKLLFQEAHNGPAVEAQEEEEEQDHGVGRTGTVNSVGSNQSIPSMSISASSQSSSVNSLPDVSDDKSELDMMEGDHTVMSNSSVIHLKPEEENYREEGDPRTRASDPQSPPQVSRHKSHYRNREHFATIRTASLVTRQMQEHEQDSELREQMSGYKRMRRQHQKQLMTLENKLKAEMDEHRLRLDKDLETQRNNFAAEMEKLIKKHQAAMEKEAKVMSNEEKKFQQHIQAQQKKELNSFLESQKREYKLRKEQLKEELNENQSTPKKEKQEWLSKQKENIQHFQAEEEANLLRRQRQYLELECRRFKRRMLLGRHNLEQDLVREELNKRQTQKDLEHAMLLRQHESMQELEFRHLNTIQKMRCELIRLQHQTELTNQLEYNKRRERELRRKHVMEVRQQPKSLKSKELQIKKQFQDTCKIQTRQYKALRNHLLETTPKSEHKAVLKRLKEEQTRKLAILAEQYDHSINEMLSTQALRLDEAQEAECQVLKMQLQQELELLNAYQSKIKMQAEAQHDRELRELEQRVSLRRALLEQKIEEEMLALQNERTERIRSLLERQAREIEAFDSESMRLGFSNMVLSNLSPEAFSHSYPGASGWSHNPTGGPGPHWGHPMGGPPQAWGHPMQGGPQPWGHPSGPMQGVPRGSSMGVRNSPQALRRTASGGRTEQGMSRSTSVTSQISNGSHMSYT
# MKK6 = biological target: T3, MKK6 (Homo sapiens, UniProt P52564)
# T3 sequence (P52564 1-334): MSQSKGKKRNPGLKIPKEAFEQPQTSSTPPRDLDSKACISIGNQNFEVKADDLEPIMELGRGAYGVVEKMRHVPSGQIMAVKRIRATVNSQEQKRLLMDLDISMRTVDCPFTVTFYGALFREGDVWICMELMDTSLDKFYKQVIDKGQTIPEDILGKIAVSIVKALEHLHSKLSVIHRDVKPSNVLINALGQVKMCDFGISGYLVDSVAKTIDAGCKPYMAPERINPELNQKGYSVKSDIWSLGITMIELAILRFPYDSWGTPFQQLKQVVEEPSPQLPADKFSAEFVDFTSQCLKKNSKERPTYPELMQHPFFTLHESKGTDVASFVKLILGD
# PIM1 = PIM1 (Homo sapiens, UniProt P11309)
# Chain of PIM1 (P11309 whole entry): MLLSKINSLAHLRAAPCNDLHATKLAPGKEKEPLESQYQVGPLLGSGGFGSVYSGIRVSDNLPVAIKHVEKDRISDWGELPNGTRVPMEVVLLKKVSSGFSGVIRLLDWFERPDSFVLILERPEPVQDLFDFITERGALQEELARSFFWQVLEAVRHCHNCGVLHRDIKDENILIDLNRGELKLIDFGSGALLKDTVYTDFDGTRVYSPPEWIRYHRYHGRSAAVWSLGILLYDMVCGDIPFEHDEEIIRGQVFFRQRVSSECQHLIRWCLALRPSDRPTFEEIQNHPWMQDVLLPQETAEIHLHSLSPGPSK
# Chain of CAMK1 (Q14012 whole entry): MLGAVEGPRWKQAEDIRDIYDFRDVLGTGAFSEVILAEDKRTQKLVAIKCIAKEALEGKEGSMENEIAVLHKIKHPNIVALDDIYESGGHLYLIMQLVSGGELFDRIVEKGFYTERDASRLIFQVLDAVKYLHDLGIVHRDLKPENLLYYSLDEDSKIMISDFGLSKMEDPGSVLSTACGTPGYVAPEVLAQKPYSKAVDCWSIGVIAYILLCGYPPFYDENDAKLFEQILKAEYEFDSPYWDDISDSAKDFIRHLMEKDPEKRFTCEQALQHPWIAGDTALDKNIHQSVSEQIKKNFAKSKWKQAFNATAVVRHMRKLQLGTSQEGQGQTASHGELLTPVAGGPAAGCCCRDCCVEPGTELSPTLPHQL
# Chain of ERK1 (P27361 whole entry, species assumed): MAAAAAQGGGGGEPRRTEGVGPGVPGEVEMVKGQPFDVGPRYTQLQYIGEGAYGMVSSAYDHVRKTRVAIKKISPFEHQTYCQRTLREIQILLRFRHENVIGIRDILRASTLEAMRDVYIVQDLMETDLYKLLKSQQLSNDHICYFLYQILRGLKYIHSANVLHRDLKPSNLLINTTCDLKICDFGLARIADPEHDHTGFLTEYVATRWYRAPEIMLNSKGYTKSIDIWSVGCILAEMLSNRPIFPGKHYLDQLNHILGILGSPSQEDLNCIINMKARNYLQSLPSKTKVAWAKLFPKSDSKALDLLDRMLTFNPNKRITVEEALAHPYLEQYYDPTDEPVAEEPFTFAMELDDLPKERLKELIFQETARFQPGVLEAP
# Chain of MLK1 (P80192 whole entry): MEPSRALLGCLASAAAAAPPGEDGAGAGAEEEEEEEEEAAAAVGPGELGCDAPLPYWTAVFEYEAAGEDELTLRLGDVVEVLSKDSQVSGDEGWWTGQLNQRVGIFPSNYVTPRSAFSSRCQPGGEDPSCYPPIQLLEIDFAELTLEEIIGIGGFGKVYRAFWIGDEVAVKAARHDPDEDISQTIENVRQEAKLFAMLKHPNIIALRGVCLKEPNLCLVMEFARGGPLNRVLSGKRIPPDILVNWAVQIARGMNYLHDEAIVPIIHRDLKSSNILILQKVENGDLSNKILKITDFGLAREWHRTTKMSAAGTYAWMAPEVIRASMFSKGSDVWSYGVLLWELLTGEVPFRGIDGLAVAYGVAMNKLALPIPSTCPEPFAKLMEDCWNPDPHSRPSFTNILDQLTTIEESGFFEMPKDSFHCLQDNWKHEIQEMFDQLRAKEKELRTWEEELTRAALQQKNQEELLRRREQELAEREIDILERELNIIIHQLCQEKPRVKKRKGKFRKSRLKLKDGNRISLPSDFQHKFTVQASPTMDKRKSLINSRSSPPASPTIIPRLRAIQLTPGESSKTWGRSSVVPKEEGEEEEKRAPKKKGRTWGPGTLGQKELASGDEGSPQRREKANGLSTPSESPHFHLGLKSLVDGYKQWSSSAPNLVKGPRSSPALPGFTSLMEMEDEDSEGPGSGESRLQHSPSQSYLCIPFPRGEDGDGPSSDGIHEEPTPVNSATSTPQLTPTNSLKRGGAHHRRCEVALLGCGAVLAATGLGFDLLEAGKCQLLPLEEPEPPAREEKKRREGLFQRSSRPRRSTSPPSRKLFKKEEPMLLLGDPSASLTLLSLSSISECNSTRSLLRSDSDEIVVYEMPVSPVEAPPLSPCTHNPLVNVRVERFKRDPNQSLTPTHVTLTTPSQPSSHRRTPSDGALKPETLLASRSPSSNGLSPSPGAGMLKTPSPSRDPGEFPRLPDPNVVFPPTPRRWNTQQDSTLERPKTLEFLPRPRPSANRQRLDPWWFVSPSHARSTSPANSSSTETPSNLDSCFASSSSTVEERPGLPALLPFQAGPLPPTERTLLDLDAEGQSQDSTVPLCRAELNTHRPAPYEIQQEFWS
smiles,measurement,setting,value
"COc1ccc2sc(-c3cncc(NC(C)=O)c3)nc2c1 [PST-001, N-(5-(5-Methoxybenzo[d]thiazol-2-yl)pyridin-3-yl)acetamide]",remaining activity at 100 µM,CAMK1,100%
same,remaining activity at 1 µM,PINK,119%
same,remaining activity at 100 µM,PINK,118%
same,remaining activity at 1 µM,ERK1,109%
same,remaining activity at 100 µM,ERK1,108%
same,remaining activity at 1 µM,MLK1,108%
same,remaining activity at 100 µM,MLK1,96%
same,remaining activity at 1 µM,TAO1,102%
same,remaining activity at 100 µM,TAO1,111%
same,remaining activity at 1 µM,MKK6,140%
same,remaining activity at 100 µM,MKK6,115%
same,remaining activity at 1 µM,PIM1,98%
same,remaining activity at 100 µM,PIM1,32%
"COc1ccc2sc(-c3cncc(N)c3)nc2c1 [compound 1, 5-(5-Methoxybenzo[d]thiazol-2-yl)pyridin-3-amine]",remaining activity at 1 µM,"CAMK1; CAMK1, 1 μM",99%
same,remaining activity at 100 µM,"CAMK1; CAMK1, 100 μM",52%
same,remaining activity at 1 µM,PINK,121%
same,remaining activity at 100 µM,PINK,114%
same,remaining activity at 1 µM,"ERK1; ERK1, 1 μM",99%
same,remaining activity at 100 µM,"ERK1; ERK1, 100 μM",81%
same,remaining activity at 1 µM,"MLK1; MLK1, 1 μM",106%
same,remaining activity at 100 µM,"MLK1; MLK1, 100 μM",16%
same,remaining activity at 1 µM,"TAO1; TAO1, 1 μM",97%
same,remaining activity at 100 µM,"TAO1; TAO1, 100 μM",57%
same,remaining activity at 1 µM,"MKK6; MKK6, 1 μM",120%
same,remaining activity at 100 µM,"MKK6; MKK6, 100 μM",118%
same,remaining activity at 1 µM,"PIM1; PIM1, 1 μM",87%
same,remaining activity at 100 µM,"PIM1; PIM1, 100 μM",24%

# Reference: publication PMC8617627, “Novel DYRK1A Inhibitor Rescues Learning and Memory Deficits in a Mouse Model of Down Syndrome” (Pharmaceuticals, 2021)
